Legend:
Type in all cases: physicochemical
[1] = Test Example 2: stability with maltose, sucrose or glucose as stabilizer
Experimental: (§1) 10 mg of Compound (II) and, as a stabilizer, 100 mg of lactose or 9 mg of sodium chloride were dissolved completely in 1 ml of water. The resulting solutions were lyophilized and maintained at 70° C. in glass vials. Nine days after, the resulting compositions were tested on their appearance, the residual amount of Compound (II), and others. As a control, used was a solution of Compound (II) without any stabilizers.
The similar tests were conducted in the same manner as in Test Example 1 except that 100 mg of maltose, 50 mg of sucrose or 50 mg of glucose was used as a stabilizer.

[2] = Test Example 4: stability of lyophilized compositions of 200 mg of lactose and Compound (II) in vial
Experimental: as §1
Stability of Lyophilized Compositions of 200 mg of Lactose and Compound (II) in Vial
Tests were carried out in the same manner as in Test Example 1 except that 12.5 mg, 25 mg, 50 mg, 75 mg or 100 mg of Compound (II) were used with 200 mg of lactose. […] Regarding all the compositions, their appearance is a white mass, the time for reconstitutional dissolution was 15 seconds, and the color and the clarity of reconstituted solutions of the compositions were colorless and transparent.

[3] = Test Example 7: dependence of stability on the water content of the composition; settings: 10 mg Compound (II) + 50 mg lactose
Experimental: Dependence of the Stability of Lyophilized Compositions of Compound (II) upon the Water Content of the Composition
10 mg of Compound (II) and, as a stabilizer, 50 mg of lactose were dissolved completely in 1 ml of water. The resulting solutions were lyophilized and maintained at 70° C. in glass vials. Nine days after, the resulting compositions were tested on their pH, their water content and the residual amount of Compound (II).

[4] = Test Example 3: dependence of stability on the amount of lactose added; settings: after 3 months at 40° C. and 75% humidity
[5] = 10 mg Compound (II) + glucose (50 mg), 0 hours
[6] = 10 mg Compound (II) + glucose (50 mg), after 9 days at 70° C.
[7] = 10 mg Compound (II) + maltose (100 mg), 0 hours
[8] = 10 mg Compound (II) + maltose (100 mg), after 9 days at 70° C.
[9] = 10 mg Compound (II) + sucrose (50 mg), 0 hours
[10] = 10 mg Compound (II) + sucrose (50 mg), after 9 days at 70° C.
[11] = 10 mg Compound (II), control: nil stabilizer, 0 hours
[12] = 10 mg Compound (II), control: nil stabilizer, after 9 days at 70° C.
[13] = 12.5 mg Compound (II) + 200 mg lactose, 0 hours
[14] = 12.5 mg Compound (II) + 200 mg lactose, after 3 months at 40° C. and 75% humidity
[15] = 12.5 mg Compound (II) + 200 mg lactose, after 9 days at 70° C.
[16] = 12.5 mg Compound (II) + 200 mg lactose, after 21 days at 60° C.
[17] = 25 mg Compound (II) + 200 mg lactose, 0 hours
[18] = 25 mg Compound (II) + 200 mg lactose, after 9 days at 70° C.
[19] = 25 mg Compound (II) + 200 mg lactose, after 21 days at 60° C.
[20] = 50 mg Compound (II) + 200 mg lactose, 0 hours
[21] = 50 mg Compound (II) + 200 mg lactose, after 3 months at 40° C. and 75% humidity
[22] = 50 mg Compound (II) + 200 mg lactose, after 9 days at 70° C.
[23] = 50 mg Compound (II) + 200 mg lactose, after 21 days at 60° C.
[24] = 75 mg Compound (II) + 200 mg lactose, 0 hours
[25] = 75 mg Compound (II) + 200 mg lactose, after 3 months at 40° C. and 75% humidity
[26] = 75 mg Compound (II) + 200 mg lactose, after 9 days at 70° C.
[27] = 75 mg Compound (II) + 200 mg lactose, after 21 days at 60° C.
[28] = 100 mg Compound (II) + 200 mg lactose, 0 hours
[29] = 100 mg Compound (II) + 200 mg lactose, after 3 months at 40° C. and 75% humidity
[30] = 100 mg Compound (II) + 200 mg lactose, after 9 days at 70° C.
[31] = 100 mg Compound (II) + 200 mg lactose, after 21 days at 60° C.
[32] = all compositions: 12.5 to 100 mg Compound (II) + 200 mg lactose
[33] = water content at 0 hours 0.9%, after 9 days at 70° C.
[34] = water content at 0 hours 1.4%, after 9 days at 70° C.
[35] = water content at 0 hours 2.6%, after 9 days at 70° C.
[36] = water content at 0 hours 3.4%, after 9 days at 70° C.
[37] = water content at 0 hours 5.1%, after 9 days at 70° C.

## CCCCCOc1ccc(-c2cc(-c3ccc(C(=O)NC4CC(O)C(O)NC(=O)C5C(O)C(C)CN5C(=O)C(C(O)CC(N)=O)NC(=O)C(C(O)C(O)c5ccc(O)c(OS(=O)(=O)[O-])c5)NC(=O)C5CC(O)CN5C(=O)C(C(C)O)NC4=O)cc3)no2)cc1.[Na+] (stereo not drawn) [Compound (II)]
[1]; [5]
  Appearance: White melt
  Residual amount: 100%
  Water content: 4.3%
  pH of reconstituted solution in 1 ml of water: 6.9
[1]; [6]
  Appearance: Brown melt
  Residual amount: 1.1%
  pH of reconstituted solution in 1 ml of water: 3.6
[1]; [7]
  Appearance: White mass
  Residual amount: 100.0%
  Water content: 0.9%
  pH of reconstituted solution in 1 ml of water: 7.3
[1]; [8]
  Appearance: White mass
  Residual amount: 98.6%
  pH of reconstituted solution in 1 ml of water: 6.7
[1]; [9]
  Appearance: White mass
  Residual amount: 100.0%
  Water content: 1.1%
  pH of reconstituted solution in 1 ml of water: 6.9
[1]; [10]
  Appearance: White melt
  Residual amount: 82.4%
  pH of reconstituted solution in 1 ml of water: 7.0
[1]; [11]
  Appearance: White mass
  Residual amount: 100.0%
  Water content: 3.3%
  pH of reconstituted solution in 1 ml of water: 6.8
[1]; [12]
  Appearance: White mass
  Residual amount: <75.0%
  pH of reconstituted solution in 1 ml of water: 5.4
[2]; [13]
  Residual amount: 100.0%
  Total impurities: 2.24%
  Water content: 1.3%
  pH of reconstituted solution in 5 ml of purified water: 6.63
[2]; [14]
  Residual amount: 99.6%
  Total impurities: 2.71%
  pH of reconstituted solution in 5 ml of purified water: 6.08
[2]; [15]
  Residual amount: 98.1%
  Total impurities: 3.95%
  pH of reconstituted solution in 5 ml of purified water: 6.15
[2]; [16]
  Residual amount: 97.5%
  Total impurities: 3.75%
  pH of reconstituted solution in 5 ml of purified water: 6.31
[2]; [17]
  Residual amount: 100.0%
  Total impurities: 2.25%
  Water content: 1.1%
  pH of reconstituted solution in 5 ml of purified water: 6.37
[2]; 25 mg Compound (II) + 200 mg lactose, after 3 months at 40° C. and 75% humidity
  Total impurities: 2.68%
[2]; [18]
  Residual amount: 99.3%
  Total impurities: 4.03%
  pH of reconstituted solution in 5 ml of purified water: 6.07
[2]; [19]
  Residual amount: 98.2%
  Total impurities: 3.49%
  pH of reconstituted solution in 5 ml of purified water: 6.11
[2]; [20]
  Residual amount: 100.0%
  Total impurities: 2.25%
  Water content: 1.2%
  pH of reconstituted solution in 5 ml of purified water: 6.26
[2]; [21]
  Residual amount: 100.5%
  Total impurities: 2.74%
  pH of reconstituted solution in 5 ml of purified water: 6.00
[2]; [22]
  Residual amount: 97.9%
  Total impurities: 3.95%
  pH of reconstituted solution in 5 ml of purified water: 5.99
[2]; [23]
  Residual amount: 97.3%
  pH of reconstituted solution in 5 ml of purified water: 6.00
[2]; [24]
  Residual amount: 100.0%
  Total impurities: 2.28%
  Water content: 0.9%
  pH of reconstituted solution in 5 ml of purified water: 6.13
[2]; [25]
  Residual amount: 99.0%
  Total impurities: 2.76%
  pH of reconstituted solution in 5 ml of purified water: 6.04
[2]; [26]
  Residual amount: 98.1%
  Total impurities: 4.14%
  pH of reconstituted solution in 5 ml of purified water: 5.95
[2]; [27]
  Total impurities: 3.83%
  pH of reconstituted solution in 5 ml of purified water: 5.96
[2]; [28]
  Residual amount: 100.0%
  Total impurities: 2.46%
  Water content: 1.3%
  pH of reconstituted solution in 5 ml of purified water: 6.03
[2]; [29]
  Residual amount: 99.5%
  Total impurities: 2.79%
[2]; [30]
  Residual amount: 97.8%
  Total impurities: 4.15%
  pH of reconstituted solution in 5 ml of purified water: 5.92
[2]; [31]
  Residual amount: 96.7%
  Total impurities: 3.92%
  pH of reconstituted solution in 5 ml of purified water: 5.88
[2]; [32]
  Appearance: white mass
  Clarity of reconstituted solutions: transparent
  Color of reconstituted solutions: colorless
  Time for reconstitutional dissolution: 15 s
[3]; all water contents 0.9 to 5.1%, 0 hours
  pH of reconstituted solution in 1 ml of water: 7.1
[3]; [33]
  Residual amount: 97.6%
  Water content: 2.5%
  pH of reconstituted solution in 1 ml of water: 7.5
[3]; [34]
  Residual amount: 98.1%
  Water content: 2.9%
  pH of reconstituted solution in 1 ml of water: 7.1
[3]; [35]
  Residual amount: 97.1%
  Water content: 3.6%
  pH of reconstituted solution in 1 ml of water: 6.8
[3]; [36]
  Residual amount: 92.7%
  Water content: 4.3%
  pH of reconstituted solution in 1 ml of water: 6.8
[3]; [37]
  Residual amount: 18.3%
  Water content: 5.4%
  pH of reconstituted solution in 1 ml of water: 3.5
[4]; 10 mg Compound (II) + 20 mg lactose
  Appearance: White mass
[4]; 10 mg Compound (II) + 50 mg lactose
  pH of reconstituted solution in 1 ml of water: 6.26
[4]; 10 mg Compound (II) + 100 mg lactose
  Clarity of reconstituted solution in 1 ml of water: Clear

Source: patent publication US7112565B2, “Stabilized pharmaceutical composition in lyophilized form” (Astellas Pharma Inc., priority 1999, dated 2006)
